Data on 42 compounds can be found in the supplement of paper PMC9151546.

Where a name gives a salt, the structure may show the parent alone.

Assay [1] concerns CHO-K1. In words: benchmark concentration for 30% increase in micronucleus frequency (BMC30); higher = less potent clastogen. The procedure:
(§1)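 Benchmark concentration modelling (PROAST, Hill/exponential model families) of the 19-concentration flow-cytometric micronucleus assay in CHO-K1 cells, with and without rat liver S9. Only non-cytotoxic and adequate (relative survival >=40%) concentrations were used. BMR was a 30% increase in %MN (BMC30) or a 60% increase in %hypodiploid (BMC60) over control.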

Assay [2] concerns CHO-K1. In words: benchmark concentration for 60% increase in hypodiploid frequency (BMC60); higher = less potent aneugen. The procedure:
as §1

[3] abbreviates: S9 metabolic activation: without S9.
Where [4] appears, read: S9 metabolic activation: with S9.

For the compound `COP(=O)(OC)OC=C(Cl)Cl` [Dichlorvos], the benchmark concentration with CHO-K1 [1] (setting [3]) turned out to be 66 µM; in the assay with CHO-K1 [2] (setting [3]) it was 90 µM. With `Nc1ccc2c(c1)C(=O)c1ccccc1C2=O` [2-Aminoanthraquinone], the benchmark concentration with CHO-K1 [1] (setting [4]) amounted to 8.1 µM; in the assay on CHO-K1 [2] (setting [4]) it was 22 µM; with CHO-K1 [2] (setting [3]), 29 µM. As to `Nc1ccc2ccccc2c1` [2-Naphthylamine], the benchmark concentration was 51 µM with CHO-K1 [1] (setting [3]), 43 µM in the assay with CHO-K1 [2] (setting [4]) and 47 µM with CHO-K1 [2] (setting [3]).

On to `O=CCCCC=O` [Glutaraldehyde], for which the benchmark concentration with CHO-K1 [1] (setting [3]) was 28 µM. As for `Cn1cnc([N+](=O)[O-])c1Sc1ncnc2[nH]cnc12` [Azathioprine], the results for the benchmark concentration with CHO-K1 [1] (setting [3]), in the assay on CHO-K1 [2] (setting [4]) and in the assay with CHO-K1 [2] (setting [3]) were 83 µM, 170 µM and 18 µM, respectively. Take `O=C1C2(Cl)C3(Cl)C4(Cl)C(Cl)(Cl)C5(Cl)C3(Cl)C1(Cl)C5(Cl)C24Cl` (stereo not given) [Kepone]: the benchmark concentration with CHO-K1 [1] (setting [4]) came out at 53 µM; with CHO-K1 [1] (setting [3]), 30 µM. In turn, `CCOC(N)=O` [Urethane] yielded a benchmark concentration in the assay with CHO-K1 [1] (setting [4]) of 32 µM. On to `OCC1CO1` (stereo not given) [Glycidol], for which the benchmark concentration with CHO-K1 [1] (setting [3]) is 99 µM. `c1ccc2c(c1)oc1ccccc12` [Dibenzofuran] showed a benchmark concentration in the assay on CHO-K1 [1] (setting [4]) of 33 µM. Still for that read-out and setting: next, `C[C@@H]1C[C@@H]([C@H](O)CC2CC(=O)NC(=O)C2)C(=O)[C@@H](C)C1` [Cycloheximide]: below 4.5 µM.

Turning to `CCOC(=O)C(O)(c1ccc(Cl)cc1)c1ccc(Cl)cc1` [Chlorobenzilate], in the assay with CHO-K1 [1] (setting [3]), the benchmark concentration worked out at 47 µM.

In the case of `O=C(c1ccc(OCCN2CCCCC2)cc1)c1c(-c2ccc(O)cc2)sc2cc(O)ccc12` [Raloxifene hydrochloride], the benchmark concentration was 70 µM in the assay with CHO-K1 [1] (setting [4]) and 28 µM in the assay on CHO-K1 [1] (setting [3]). In the assay with CHO-K1 [1] (setting [3]), `O=c1c(-c2ccc(O)cc2)coc2cc(O)cc(O)c12` [Genistein] displayed a benchmark concentration of 10 µM. On the same count and under the same terms, next, `O=Cc1ccco1` [Furfural]: 130 µM.

As to `OCCOCCO` [Diethylene glycol], in the assay on CHO-K1 [1] (setting [3]), the benchmark concentration worked out at 79 µM. Same read-out and setting: next, `O=[N+]([O-])c1ccc(Oc2ccc(Cl)cc2Cl)cc1` [Nitrofen]: 77 µM; `CCCCC(CC)COC(=O)CCCCC(=O)OCC(CC)CCCC` (stereo not given) [Di(2-ethylhexyl) adipate]: 76 µM; `CS(=O)(=O)OCCCCOS(C)(=O)=O` [Busulfan]: 19 µM.

In the assay with CHO-K1 [1] (setting [4]), `CCCOC(=O)c1ccc(O)cc1` [Propylparaben] displayed a benchmark concentration of 37 µM.

For the compound `CCOCN(C(=O)CCl)c1c(C)cccc1CC` [Acetochlor], the benchmark concentration in the assay on CHO-K1 [1] (setting [4]) came to 79 µM; in the assay on CHO-K1 [1] (setting [3]), 39 µM. `O=S(=O)(O)C(F)(F)C(F)(F)C(F)(F)C(F)(F)C(F)(F)C(F)(F)C(F)(F)C(F)(F)F` [PFOS] registered a benchmark concentration in the assay with CHO-K1 [1] (setting [3]) of 18 µM. Still for that read-out and setting: next, `CCOC(=O)c1ccc(O)cc1` [Ethylparaben]: 70 µM; `O=C1OC(c2ccc(O)cc2)(c2ccc(O)cc2)c2ccccc21` [Phenolphthalein]: 22 µM. Compound `CCCN(CCC)N=O` [N-Nitrosodipropylamine] came in with a benchmark concentration in the assay on CHO-K1 [1] (setting [4]) of 20 µM. The same measure, in the same setting: next, `O=c1[nH]sc2ccccc12` [1,2-Benzisothiazolin-3-one]: 32 µM. Regarding `O=c1[nH]cnc2c1ncn2[C@H]1CC[C@@H](CO)O1` [2',3'-Dideoxyinosine], in the assay with CHO-K1 [1] (setting [3]), the benchmark concentration is 84 µM. On the same count and under the same terms, the same measure for `CCCCCCCCn1sccc1=O` [Octhilinone]: below 4.5 µM. For the compound `CC(=O)N1CCN(c2ccc(OCC3COC(Cn4ccnc4)(c4ccc(Cl)cc4Cl)O3)cc2)CC1` (stereo not given) [Ketoconazole], the benchmark concentration in the assay on CHO-K1 [1] (setting [4]) was determined as 54 µM. In turn, `C=CC(N)=O` [Acrylamide] gave a benchmark concentration in the assay with CHO-K1 [1] (setting [4]) of 47 µM. Take `ClC1=C(Cl)C(Cl)(Cl)C(Cl)=C1Cl` [Hexachlorocyclopentadiene]: the figures for the benchmark concentration with CHO-K1 [1] (setting [4]) and in the assay on CHO-K1 [1] (setting [3]) were 23 µM and below 4.5 µM, respectively.

As to `CCC(C)c1cc([N+](=O)[O-])cc([N+](=O)[O-])c1O` (stereo not given) [Dinoseb], in the assay with CHO-K1 [1] (setting [3]), the benchmark concentration was found to be 49 µM. As for `CCCOC(=O)c1cc(O)c(O)c(O)c1` [Propyl gallate], the benchmark concentration with CHO-K1 [1] (setting [4]) stood at 24 µM; with CHO-K1 [1] (setting [3]), 17 µM. Consider `CC(C)(OOC(C)(C)c1ccccc1)c1ccccc1` [Dicumyl peroxide], for which the benchmark concentration was determined as 88 µM with CHO-K1 [1] (setting [4]) and 5.5 µM in the assay with CHO-K1 [1] (setting [3]). `O=C(O)c1cc(/N=N/c2ccc(S(=O)(=O)Nc3ccccn3)cc2)ccc1O` [Sulfasalazine]: the benchmark concentration with CHO-K1 [1] (setting [3]) is 65 µM. Still for that read-out and setting: the same measure for `Nc1ccc(Cl)cc1N` [4-Chloro-1,2-diaminobenzene]: 41 µM.

In the assay with CHO-K1 [2] (setting [3]), `CN(C)c1ccccc1` [N,N-Dimethylaniline] came in with a benchmark concentration of 43 µM. The compound `CN(C)CCCN1c2ccccc2Sc2ccc(Cl)cc21` [Chlorpromazine hydrochloride] came in with a benchmark concentration with CHO-K1 [1] (setting [3]) of 23 µM. Compound `O=c1ccc2ccccc2o1` [Coumarin] showed a benchmark concentration with CHO-K1 [2] (setting [3]) of 9.7 µM. On the same count and under the same terms, next, `Oc1ccc(Cl)cc1Cc1ccccc1` [Clorophene]: 34 µM. Same read-out and setting: the same measure for `Cc1ccc(Cl)cc1` [4-Chlorotoluene]: 60 µM; for `C/C=C/c1ccc(OC)cc1` [(E)-Anethole]: 35 µM. The same measure, in the same setting: next, `OCCNCCO` [Diethanolamine]: 84 µM.
